Earlier results on eleven compounds are cited in US10851274B2, “Coolant mixtures for use in heat-exchange devices in the aerospace field” (Safran Electrical & Power, priority 2016, dated 2020).

The conditions of data set [1]: known fluids, water and antigels; criterion <100.
The conditions of data set [2]: known fluids, water and antigels; criterion >500.
For data set [3] the following is noted: known fluids; for FP: water and antigels, criterion ≥23.
For data set [4] the following is noted: for Toxicity: known coolant fluids, water and antigels, criterion: No; for Toxicity (in words): known fluids.

Structures are written as SMILES.

Take `CO` [Methanol]: the Tb in data set [1] is 64 °C. In data set [2], the ΔHvap is reported as 1098 kJ/kg. Also, in data set [3], the “Flammability (in words)” value was “highly flammable” and the FP was 11 °C. Also, in data set [4], the Toxicity result is on record as “Yes”.

On to `CC(O)CO` (stereo not shown) [Propylene-glycol, propylene glycol], for which the Tb in data set [1] was 187 °C. For the same compound, in data set [2], the ΔHvap was 736 kJ/kg. Moreover, in data set [3], the FP was 107 °C. In addition, the Toxicity entry in data set [4] is “No (a fluid is non-toxic if its oral LD50 is greater than 500 mg/kg)”.

With `CCO` [Ethanol], the Tb in data set [1] was 78 °C. For the same compound, the ΔHvap in data set [2] is listed as 837 kJ/kg. For the same compound, in data set [3], the “Flammability (in words)” value is “highly flammable” and the FP is 13 °C. Further, the Toxicity result in data set [4] is “No (a fluid is non-toxic if its oral LD50 is greater than 500 mg/kg)”.

In the case of `OCCO` [ethylene glycol], the “Toxicity (in words)” value in data set [4] is recorded as “highly toxic”.

For the compound `COCC(C)O` (stereo not shown) [1-methoxy-2-propanol], in data set [1], the Tb is 118 °C. Further, the ΔHvap in data set [2] is 461 kJ/kg. The FP in data set [3] is 34 °C. Also, the Toxicity entry in data set [4] is reported as “No (a fluid is non-toxic if its oral LD50 is greater than 500 mg/kg)”.

Turning to `O=C=O` [Carbon dioxide], the Tb in data set [1] was −57 °C. Also, the ΔHvap in data set [2] was 400 kJ/kg. Moreover, the FP entry in data set [3] was “None”. Besides, the Toxicity result in data set [4] is on record as “No (a fluid is non-toxic if its oral LD50 is greater than 500 mg/kg)”.

`N` [Ammoniac, ammonia]: in data set [1], the Tb is −33 °C. Moreover, in data set [2], the ΔHvap is listed as 1371 kJ/kg. The FP in data set [3] is 132 °C. Also, in data set [4], the Toxicity entry is “Yes” and the “Toxicity (in words)” value is recorded as “toxic”.

In the case of `CCOCC(C)O` (stereo not shown) [1-ethoxy-2-propanol], the Tb in data set [1] was 132 °C. In data set [2], the ΔHvap is recorded as 308 kJ/kg. Besides, in data set [3], the FP was 42 °C. Besides, in data set [4], the Toxicity result was “No (a fluid is non-toxic if its oral LD50 is greater than 500 mg/kg)”.

Consider `CC(C)=O` [Acetone], for which the Tb in data set [1] is 57 °C. Also, the ΔHvap in data set [2] is on record as 501 kJ/kg. Further, in data set [3], the “Flammability (in words)” value is given as “highly flammable” and the FP is −20 °C. For the same compound, the Toxicity entry in data set [4] is given as “No (a fluid is non-toxic if its oral LD50 is greater than 500 mg/kg)”.

For the compound `CCOC(F)(F)C(F)(F)C(F)(F)C(F)(F)F` [HFE 3M Novec 7100, ethoxynonafluorobutane], in data set [1], the Tb was 76 °C. Besides, in data set [2], the ΔHvap is 126 kJ/kg. In data set [3], the FP result is reported as “None”. The Toxicity entry in data set [4] is listed as “No (a fluid is non-toxic if its oral LD50 is greater than 500 mg/kg)”.

`O` [Water]: the Tb in data set [1] was 100 °C. In addition, in data set [3], the “Flammability (in words)” value is on record as “fireproof” and the FP entry is “None”. Besides, in data set [4], the Toxicity entry is on record as “No (a fluid is non-toxic if its oral LD50 is greater than 500 mg/kg)” and the “Toxicity (in words)” value is on record as “non-toxic”.
